Data set [1] deals with Leishmania chagasi. Kind of data set: Antileishmanial activity against Leishmania infantum chagasi MHOM/BR/1972/LD promastigote forms infected in golden hamster after 48 hrs by Alamar Blue assay. The format is functional.
A short description of data set [2]: Cytotoxicity against mouse NCTC-929 cells assessed as reduction in cell viability after 48 hrs by Alamar Blue assay. Type of data set: cell-based. As to conditions: NCTC-929, 48 h.
Data set [3] has as its system Leishmania major. Kind of data set: Antileishmanial activity against Leishmania major MHOM/SN/74/Seidman promastigote forms after 8 days. Type of data set: functional. As to conditions: 192 h.
Data set [4] concerns Leishmania amazonensis. Kind of data set: Antileishmanial activity against Leishmania amazonensis LV78 promastigotes forms after 8 days. The format is functional. The note with it: LV78, 192 h.
Data set [5] deals with Leishmania donovani. Kind of data set: Antileishmanial activity against Leishmania donovani […] promastigote forms after 8 days. The format is functional. As to conditions: 192 h.
Data set [6] has as its system Leishmania amazonensis. Kind of data set: Antileishmanial activity against Leishmania amazonensis LV78 axenic amastigote forms after 8 days. The format is functional. As to conditions: LV78, 192 h.
The subject of data set [7] is Leishmania tropica. Kind of data set: Antileishmanial activity against Leishmania tropica amastigote forms infected in human monocyte-derived macrophage assessed as reduction in parasite infection at 2 ug/ml relative to control. Type of data set: functional. The arrangement: scale not given: the % may be the effect or the level left.
Data set [8] has as its system Leishmania major. Kind of data set: Antileishmanial activity against Leishmania major MRHO/IR/75/ER amastigote forms infected in mouse J774A.1 cells after 60 hrs by giemsa-staining based light microscopic analysis. Type of data set: functional, cell-based. As to conditions: J774.A1, 60 h.
Data set [9] is described as follows: Cytotoxicity against mouse J774A.1 cells assessed as reduction in cell viability after 2 mins by trypan blue dye-light microscopic analysis. Type of data set: cell-based, J774.A1.
For data set [10], the system named is Leishmania donovani. Kind of data set: Antileishmanial activity against Leishmania donovani MHOM/IN/80/Dd8 amastigote forms infected in mouse J774A.1 cells assessed as reduction in parasite infection after 72 hrs by luciferase reporter gene assay. The note with it: MHOM/IN/80/Dd8, J774.A1, 72 h. The format is functional, cell-based.
Data set [11] in a line: Selectivity index, ratio of CC50 for mouse J774A.1 cells to IC50 for Leishmania donovani MHOM/IN/80/Dd8 amastigote forms infected in mouse J774A.1 cells. Type of data set: toxicity, cell-based. As to conditions: read-out: Ratio CC50/IC50.
Data set [12] has as its system Leishmania donovani. Kind of data set: Antileishmanial activity against Leishmania donovani MHOM/IN/80/Dd8 amastigote forms infected in golden hamster assessed as inhibition in parasite infection in spleen at 50 mg/kg, ip administered for 5 days measured at day 7 post treatment by giemsa-staining based assay relative to control. The format is functional. As to conditions: MHOM/IN/80/Dd8, ip.

The test system of data set [13] is Leishmania chagasi. Kind of data set: Antileishmanial activity against Leishmania infantum chagasi MHOM/BR/1972/LD amastigote forms infected in BALB/c mouse macrophage after 120 hrs by giemsa-staining based light microscopic analysis. The format is functional.
Data set [14] deals with Leishmania mexicana. Kind of data set: Antileishmanial activity against Leishmania mexicana Walter Reed 227 promastigote forms assessed as reduction in promastigotes sterol biosynthesis at 10 nM after 24 hrs in presence of [2-14C]mevalonate by liquid scintillation spectrometry analysis relative to control. Type of data set: functional. The arrangement: scale not given: the % may be the effect or the level left.

In data set [15] the test system is Leishmania braziliensis. Kind of data set: Antileishmanial activity against Leishmania braziliensis MHOM/BR/75/M2903 promastigotes forms in presence of terbinafine by trypan blue-staining based light microscopy. The format is functional.
The test system of data set [16] is Leishmania tropica. Kind of data set: Antileishmanial activity against Leishmania tropica amastigote forms infected in human monocyte-derived macrophage assessed as reduction in parasite infection at 15 ug/ml relative to control. Type of data set: functional. The arrangement: scale not given: the % may be the effect or the level left.
For data set [17], the system named is Leishmania major. Kind of data set: Antileishmanial activity against Leishmania major MRHO/IR/75/ER promastigote forms after 72 hrs by MTT assay. The format is functional.
The subject of data set [18] is Leishmania major. Kind of data set: Antileishmanial activity against Leishmania major MHOM/SA/85/JISH118 promastigote forms after 48 hrs by flow cytometric analysis. Type of data set: functional. The note with it: MHOM/SA/85/JISH118, 48 h.
For data set [19], the system named is Leishmania major. Kind of data set: Antileishmanial activity against Leishmania major MHOM/SA/85/JISH118 promastigote forms after 44 hrs by Alamar Blue assay. The format is functional. As to conditions: MHOM/SA/85/JISH118, 44 h.
Data set [20] relates to Leishmania major. Kind of data set: Antileishmanial activity against Leishmania major MHOM/SA/85/JISH118 axenic amastigote forms after 44 to 46 hrs by Alamar Blue assay. The format is functional.
The subject of data set [21] is Leishmania amazonensis. Kind of data set: Leishmanicidal activity against Leishmania amazonensis JOSEPHA promastigote forms after 18 hrs by indirect microscopic analysis. Type of data set: functional.
The test system of data set [22] is Leishmania panamensis. Kind of data set: Leishmanicidal activity against Leishmania panamensis L334 promastigotes forms after 18 hrs by indirect microscopic analysis. Type of data set: functional. The note with it: L334, 18 h.
Data set [23] concerns Leishmania major. Kind of data set: Leishmanicidal activity against Leishmania major KK promastigote forms after 18 hrs by indirect microscopic analysis. Type of data set: functional.
Data set [24] concerns Leishmania major. Kind of data set: Antileishmanial activity against Leishmania major infected in human assessed as healing of lesions at 200 mg/day, po administered for 6 weeks (reference value: 34%). The format is functional.
The test system of data set [25] is Leishmania mexicana. Kind of data set: Leishmanicidal activity against Leishmania mexicana 68 promastigote forms after 18 hrs by indirect microscopic analysis. Type of data set: functional. The note with it: Leishmania mexicana, 68, 18 h.
Data set [26] deals with Leishmania braziliensis. Kind of data set: Antileishmanial activity against Leishmania (Viannia) braziliensis infected in human assessed as cure rate at 5 to 8 mg/kg/day, po for 4 weeks. The format is functional.
In data set [27] the test system is Leishmania panamensis. Kind of data set: Leishmanicidal activity against Leishmania panamensis LS94 promastigote forms after 18 hrs by indirect microscopic analysis. As to conditions: LS94, 18 h. The format is functional.
Data set [28] relates to Leishmania donovani. Kind of data set: Leishmanicidal activity against Leishmania donovani 1S MHOM/SD/00/1S-2D promastigote forms after 18 hrs by indirect microscopic analysis. Type of data set: functional.
Data set [29] deals with Leishmania mexicana. Kind of data set: Leishmanicidal activity against Leishmania mexicana 390 promastigote forms after 18 hrs by indirect microscopic analysis. The format is functional. The note with it: Leishmania mexicana, 390, 18 h.
The test system of data set [30] is Leishmania major. Kind of data set: Antileishmanial activity against Leishmania major LV39 Rho/SU/59/P promastigote forms harboring C14DM null mutant after 48 hrs. The format is functional.
Data set [31] relates to Leishmania major. Kind of data set: Antileishmanial activity against wild type Leishmania major LV39 Rho/SU/59/P promastigote forms after 48 hrs. Type of data set: functional.
In data set [32] the test system is Leishmania major. Kind of data set: Antileishmanial activity against Leishmania major MHOM/SEN/96/NAN2 stationary phase promastigote forms infected in BALB/c mouse assessed as reduction in parasite burden in spleen at 10 mg/kg, ip qd administered for 5 consecutive days measured after 50 days by May-Grunwald-Giemsa staining-based method relative to control. Type of data set: functional. The arrangement: scale not given: the % may be the effect or the level left.

Data set [33] concerns Leishmania mexicana. Kind of data set: Antileishmanial activity against Leishmania mexicana MHOM/MX/95/NAN1 axenic amastigote forms after 96 hrs by uptiblue-based spectrofluorimetric analysis. The note with it: MHOM/MX/95/NAN1, 96 h. Type of data set: functional.
In data set [34] the test system is Leishmania major. Kind of data set: Antileishmanial activity against Leishmania major MHOM/SEN/96/NAN2 stationary phase promastigote forms infected in BALB/c mouse assessed as reduction in parasite burden in popliteal node at 10 mg/kg, ip qd administered for 5 consecutive days measured after 50 days by May-Grunwald-Giemsa staining-based method relative to control. The format is functional. The arrangement: scale not given: the % may be the effect or the level left.

Data set [35] concerns Leishmania major. Kind of data set: Antileishmanial activity against Leishmania major MHOM/SEN/96/NAN2 stationary phase promastigote forms infected in BALB/c mouse assessed as reduction in parasite burden in liver at 10 mg/kg, ip qd administered for 5 consecutive days measured after 50 days by May-Grunwald-Giemsa staining-based method relative to control. The format is functional. The arrangement: scale not given: the % may be the effect or the level left.

Data set [36] concerns Leishmania mexicana. Kind of data set: Antileishmanial activity against Leishmania mexicana MHOM/MX/95/NAN1 amastigote forms infected in Balb/c mouse peritoneal macrophages after 48 hrs by May-Grunwald-Giemsa staining-based assay. The format is functional. The note with it: MHOM/MX/95/NAN1, 48 h.

Converted amounts (≈) assume the structure as drawn.

On to `Clc1ccccc1C(c1ccccc1)(c1ccccc1)n1ccnc1` [CLOTRIMAZOLE], for which the IC50 is 2.81 µM in the data set with Leishmania chagasi [1] and 39.2 to 42.7 µM in [2].
Consider `C[C@@H](c1ncncc1F)[C@](O)(Cn1cncn1)c1ccc(F)cc1F` [VORICONAZOLE], for which the IC50 in the data set on Leishmania major [3] is 6.1 to 10.4 µM; in the data set on Leishmania amazonensis [4], 6.1 to 10.4 µM; in the data set on Leishmania donovani [5], 6.1 to 10.4 µM; with Leishmania amazonensis [6], 5.84 µM.
Turning to `Clc1ccc([C@@]2(Cn3ccnc3)OC[C@H](COc3ccc(N4CCNCC4)cc3)O2)c(Cl)c1`, the Activity in the data set with Leishmania tropica [7] amounted to 85%.
`O/N=C1/c2ccccc2OC(c2ccc(Cl)cc2)C1n1ccnc1` (stereo unspecified) gave an IC50 in the data set with Leishmania major [8] of 0.6 µM. For the same compound, the cytotoxic concentration (CC50) at 2 min in [9] was 355 µM.
In the case of `Clc1cccc(CO/N=C2/c3cccc(Cl)c3CCC2Cn2ccnc2)c1` (stereo unspecified), in the data set with Leishmania donovani [10], the half-inhibitory concentration (IC50) was determined as 2.32 µM. The selectivity ratio in data set [11] is 25.6. In addition, in the data set with Leishmania donovani [12], the inhibition in vivo at 50 mg/kg amounted to 70%.
For the compound `Clc1ccc(COC(Cn2ccnc2)c2ccc(Cl)cc2Cl)cc1` (stereo unspecified) [ECONAZOLE], the 50% inhibitory concentration (IC50) is 5.36 µM with Leishmania chagasi [1], 39.2 to 42.7 µM in [2] and 11 µM in the data set on Leishmania chagasi [13].
Turning to `CC(=O)N1CCN(c2ccc(OCC3COC(Cn4ccnc4)(c4ccc(Cl)cc4Cl)O3)cc2)CC1` (stereo unspecified) [KETOCONAZOLE], the IC50 in the data set on Leishmania major [3] was 0.55 to 3.54 µM; in the data set with Leishmania major [8], 12.8 µg/mL; in the data set on Leishmania amazonensis [4] it was 0.55 to 3.54 µM; in the data set with Leishmania donovani [5], 0.55 to 3.54 µM; with Leishmania amazonensis [6], 3.14 µM. In addition, the Activity in the data set with Leishmania mexicana [14] is 50%; with Leishmania tropica [16], 85%. The MIC in the data set on Leishmania braziliensis [15] is 0.03 µM.
In the case of `O/N=C1/c2ccccc2OC(c2cccc(Cl)c2)C1n1ccnc1` (stereo unspecified), the midpoint of inhibition in the data set on Leishmania major [17], the IC50, lay at 26.2 µM.
Consider `Cc1ccc(OCCCCn2ccnc2)c(Cl)c1`, for which the results for the EC50 with Leishmania major [18], in the data set on Leishmania major [19] and in the data set with Leishmania major [20] were 0.34 µM, 0.21 µM and 11.7 µM, respectively.
With `OC(Cn1cncn1)(Cn1cncn1)c1ccc(F)cc1F` [FLUCONAZOLE], the 50% inhibitory concentration (IC50) in the data set with Leishmania major [3], with Leishmania amazonensis [4] and with Leishmania donovani [5] was > 163 µM throughout. In addition, the MIC in the data set on Leishmania amazonensis [21], against Leishmania panamensis [22], in the data set on Leishmania major [23], in the data set with Leishmania mexicana [25], in the data set with Leishmania panamensis [27] and with Leishmania donovani [28] was 104 µM (≈ 32 µg/mL) throughout. For the same compound, the MIC against Leishmania mexicana [29] amounted to 104 µM (≈ 32 µg/mL). The Activity in the data set on Leishmania major [24] is given as 79%; with Leishmania braziliensis [26], 75 - 100%.
As to `CC[C@@H]([C@H](C)O)n1ncn(-c2ccc(N3CCN(c4ccc(OC[C@@H]5CO[C@@](Cn6cncn6)(c6ccc(F)cc6F)C5)cc4)CC3)cc2)c1=O` [POSACONAZOLE], the MIC in the data set on Leishmania amazonensis [21], against Leishmania panamensis [22], against Leishmania major [23], in the data set on Leishmania mexicana [25], with Leishmania panamensis [27] and against Leishmania donovani [28] was 11.4 to 22.8 µM (≈ 7.99 to 16 µg/mL) each time. This compound displayed an MIC against Leishmania mexicana [29] of 11.4 to 22.8 µM (≈ 7.99 to 16 µg/mL).
On to `c1ccc(-c2ccc(C(c3ccccc3)n3ccnc3)cc2)cc1` (stereo unspecified) [BIFONAZOLE], for which the results for the half-inhibitory concentration (IC50) (in the data set with Leishmania chagasi [1]; in [2]) were 8.97 µM and 39.2 to 42.7 µM, respectively.
Take `O[C@](Cn1cncn1)(Cn1cnc(/C=C/c2ccc(OCC(F)(F)C(F)F)cc2)n1)c1ccc(F)cc1F`: in the data set with Leishmania braziliensis [15], the MIC amounted to 0.03 µM.
As for `CCC(C)n1ncn(-c2ccc(N3CCN(c4ccc(OCC5COC(Cn6cncn6)(c6ccc(Cl)cc6Cl)O5)cc4)CC3)cc2)c1=O` (stereo unspecified) [ITRACONAZOLE], the concentration for half-maximal inhibition (IC50) with Leishmania major [30] came out at 2 µM; with Leishmania major [31], 0.4 µM.
On to `CCn1cc(C(c2ccc(Cl)cc2Cl)n2ccnc2)c2cc(Br)ccc21` (stereo unspecified), for which the values for the Activity in the data set with Leishmania major [32], with Leishmania major [34] and with Leishmania major [35] were 98.9%, 49.9% and 79%, respectively. Moreover, the results for the IC50 in the data set with Leishmania mexicana [33] and in the data set on Leishmania mexicana [36] were 4.4 µM and < 1 µM, respectively.
